Our source for the IC50 values is patent publication US8741932B2, “Imidazopyridine derivatives” (Piramal Enterprises Limited, priority 2009, dated 2014).

One test relates to PANC 1. Put plainly: Cytotoxicity assay (propidium iodide), PANC 1. It counts as cell-based. Conditions: Homo sapiens; PANC 1 (C5a, pancreatic); 48 hours.
A further test concerns H460. The test can be described thus: Cytotoxicity assay (propidium iodide), H460. Type of test: cell-based. As to conditions: Homo sapiens, NCI-H460; H460 (C1b, lung); 48 hours.
A further test has as its system PC3. Put plainly: Cytotoxicity assay (propidium iodide), PC3. As to conditions: Homo sapiens, PC-3, 48 h, read-out: IC50 cytotoxicity.
The subject of test [1] is IL-6. Put plainly: Human monocyte assay, LPS-stimulated IL-6. It counts as cell-based. Conditions: Monocyte; human monocytes, 1 μg/ml LPS, 5 hours. The gist of the method: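 Adherent human PBMC-derived monocytes (2×10^4/well) were cultured 48 h, preincubated 30 min with compound or 0.5% DMSO, then stimulated with 1 μg/ml E. coli LPS for 5 h at 37° C. TNF-α and IL-6 in supernatants were measured by ELISA.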

The test system of the next test is STAT3. The test can be described thus: STAT3 bioassay (Hela Stat3-luc, luciferase). It counts as cell-based. As to conditions: Homo sapiens, Oncostatin M induction. The gist of the method:
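Hela Stat3-luc cells (20,000/well, 24 h) pretreated with compound 1 h, then induced with 100 ng/ml final Oncostatin M for 7-8 h at 37 °C. Luciferase luminescence after lysis; percent inhibition versus induction control, IC50 from these percentages.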

The next test has as its system A549. The test can be described thus: Cytotoxicity assay (propidium iodide), A549. It counts as cell-based. Conditions: Homo sapiens; A549 (C1a, lung); 48 hours.
Another test deals with A2780. Put plainly: Cytotoxicity assay (propidium iodide), A2780. It counts as cell-based. As to conditions: Homo sapiens; A2780 (C3a, ovarian); 48 hours.
The next test deals with CAPAN1. Put plainly: Cytotoxicity assay (propidium iodide), CAPAN1. Type of test: cell-based. Conditions: Homo sapiens, CAPAN-1; CAPAN1 (C5b, pancreatic); 48 hours.
The subject of another test is HCT116. The test can be described thus: Cytotoxicity assay (propidium iodide), HCT116. It counts as cell-based. Conditions: Homo sapiens, HCT-116; HCT116 (C4b, colon); 48 hours.
A further test deals with OVCAR 3. Put plainly: Cytotoxicity assay (propidium iodide), OVCAR 3. Type of test: cell-based. As to conditions: Homo sapiens; OVCAR 3 (C3c, ovarian); 48 hours.
The subject of test [2] is TNF-α. The test can be described thus: Human monocyte assay, LPS-stimulated TNF-α. Conditions: human monocytes, 1 μg/ml LPS, 5 hours. Type of test: cell-based. As to the method: The assay was designed as in the reference, Physiol.
Peripheral blood mononuclear cells (hPBMC) were harvested from human blood and suspended in RPMI 1640 culture medium containing 10% FCS, 100 U/mL penicillin and […] streptomycin (assay medium). Monocytes in the hPBMCs were counted using a Coulter Counter following which the cells were resuspended at 2×10^5 monocytes/mL. A cell suspension containing 2×10^4 monocytes was aliquoted per well of a 96-well plate. Subsequently, the hPBMCs were incubated for 4-5 hours at 37° C., 5% CO2 (During the incubation, the monocytes adhered to the bottom of 96-well plastic culture plate). Following the incubation, the non-adherent lymphocytes were washed with assay medium and the adherent monocytes re-fed with assay medium. After a 48-hour incubation period (37° C., 5% CO2), monocytes were pretreated with various concentrations of representative compounds of present invention (refer to table 6 and 7) (prepared in DMSO) or vehicle (0.5% DMSO) for 30 minutes and stimulated with 1 μg/ml LPS (Escherchia coli 0111:B4, Sigma Chemical Co., St. Louis, Mo.). The incubation was continued for 5 hours at 37° C., 5% CO2. Supernatants were harvested, assayed for IL-6 and TNF-α by ELISA as described by the manufacturer (BD Biosciences, USA). Dexamethasone (10 μM) was used as standard for this assay. […] Biological results for both IL-6 and TNFα are indicated in Table 6 and Table 7 respectively.

The test system of test [3] is TNF-α. Put plainly: Synovial tissue assay, TNF-α. It counts as cell-based. As to conditions: Homo sapiens; synovial tissue cells from rheumatoid arthritis patients, 16 hours. Here is the method: (§1) The assay was designed as in the reference, Lancet, 2(8657), 244-7, Jul.
(§2) Stock Solution: Compounds of the present invention were dissolved in DMSO to obtain a stock solution of 20 mM.
(§3) Synovial tissue was obtained from rheumatoid arthritis patients undergoing knee replacement surgery. The tissue was minced into small pieces and digested in RPMI medium containing 100 U/ml penicillin-G, 100 μg/ml streptomycin, 50 ng/ml amphotericin B (GIBCO; USA), 1.33 mg/ml collagenase Type I (Worthington Biochemical Corporation, New Jersey), 0.5 μg/ml DNAse Type I (Sigma Aldrich; St. Louis, Mo.) and 8.33 U/ml heparin (Biological E. Limited, India) for 3 hours at 37° C., 5% CO2. The digested tissue was filtered through a membrane (mesh size 70 micron; Sigma Aldrich). Subsequently, the cells were washed 3 times and resuspended in complete medium (RPMI supplemented with 5% FBS and 5% human serum-AB+) at a concentration of 1×10^6 cells/ml. All cell washes in this assay were performed using Rosewall Park Memorial Institute (RPMI)-1640 medium (JRH; Australia). For the experiment, 100 μl of cell suspension was added to the wells of a 96-well culture plate. Following cell plating, 100 μl of the culture medium and 1 μl of various concentrations (0.01, 0.03, 0.1, 0.3, 1, 3, 10, 30 and 100 μM) of the compounds of present invention dissolved in DMSO were added to the cells. The final concentration of DMSO was adjusted to 0.5%. For experimental purposes, 1 μl of […] concentrated solution of the compounds of present invention were dissolved in 200 μl cell suspension to achieve a final concentration of 0.01, 0.03, 0.1, 0.3, 1, 3, 10, 30 and 100 μM. The vehicle (0.5% DMSO) was used as control. 10 μM dexamethasone (Sigma Aldrich) or 1 μM 7-hydroxyfluorinide (7HF) were used as standards for the experiments. The plates were incubated for 16 hours at 37° C., 5% CO2. Subsequently, the supernatants were harvested and stored at −70° C. The amounts of TNF-α, IL-6 and interleukin-8 (IL-8) in the supernatants were assayed using OptiEIA ELISA sets, (BD BioSciences Pharmingen). The protocol followed was as per manufacturers instructions. […] The cytotoxicity of test compounds in synovial cells was assessed by MTS assay. Absorbance was measured at 490 nm. Percent cytotoxicity was calculated by the equation: % Cytotoxicity=(A−B)/A×100 where, A is the absorbance of cells treated with DMSO alone and B is the absorbance of cells treated with the test article.

A further test concerns IL-8. Put plainly: Synovial tissue assay, IL-8. Conditions: Homo sapiens; synovial tissue cells from rheumatoid arthritis patients, 16 hours. It counts as cell-based. Here is the method: as §1, §2, §3
For test [4], the system named is IL-6. Put plainly: Synovial tissue assay, IL-6. It counts as cell-based. As to conditions: Homo sapiens; synovial tissue cells from rheumatoid arthritis patients, 16 hours. As to the method: as §1, §2, §3
For another test, the target named is T1, PI3Kα kinase (Homo sapiens, UniProt P42336).
T1 construct: purchased Millipore, USA
T1 sequence (P42336 whole entry): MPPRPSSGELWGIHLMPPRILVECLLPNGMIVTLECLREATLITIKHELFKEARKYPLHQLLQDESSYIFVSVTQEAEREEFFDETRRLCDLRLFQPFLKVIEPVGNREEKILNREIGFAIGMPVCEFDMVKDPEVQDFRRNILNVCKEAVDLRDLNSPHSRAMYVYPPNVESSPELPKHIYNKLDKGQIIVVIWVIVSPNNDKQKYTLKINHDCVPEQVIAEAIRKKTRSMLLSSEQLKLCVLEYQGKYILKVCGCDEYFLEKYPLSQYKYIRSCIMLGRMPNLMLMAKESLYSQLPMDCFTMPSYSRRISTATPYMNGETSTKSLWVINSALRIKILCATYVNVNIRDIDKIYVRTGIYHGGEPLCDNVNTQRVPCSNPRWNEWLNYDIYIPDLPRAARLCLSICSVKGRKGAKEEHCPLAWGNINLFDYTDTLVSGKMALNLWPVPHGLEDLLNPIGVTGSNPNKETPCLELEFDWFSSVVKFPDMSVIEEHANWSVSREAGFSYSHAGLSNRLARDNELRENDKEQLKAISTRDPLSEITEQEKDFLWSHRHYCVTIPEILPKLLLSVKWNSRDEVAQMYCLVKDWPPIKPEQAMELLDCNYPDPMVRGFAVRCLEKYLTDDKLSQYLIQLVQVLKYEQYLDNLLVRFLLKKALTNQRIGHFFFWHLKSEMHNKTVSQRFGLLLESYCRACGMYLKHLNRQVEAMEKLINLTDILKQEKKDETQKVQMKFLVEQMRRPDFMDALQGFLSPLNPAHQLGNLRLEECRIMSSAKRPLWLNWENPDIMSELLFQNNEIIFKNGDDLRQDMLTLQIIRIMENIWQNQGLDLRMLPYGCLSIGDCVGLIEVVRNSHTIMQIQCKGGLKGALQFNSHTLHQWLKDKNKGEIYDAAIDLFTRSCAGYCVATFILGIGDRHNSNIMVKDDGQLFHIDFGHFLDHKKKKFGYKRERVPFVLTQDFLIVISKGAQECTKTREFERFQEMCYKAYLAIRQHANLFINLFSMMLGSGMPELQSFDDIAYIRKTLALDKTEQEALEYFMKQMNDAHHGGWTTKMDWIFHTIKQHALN
T1 sequence (P27986 whole entry partner): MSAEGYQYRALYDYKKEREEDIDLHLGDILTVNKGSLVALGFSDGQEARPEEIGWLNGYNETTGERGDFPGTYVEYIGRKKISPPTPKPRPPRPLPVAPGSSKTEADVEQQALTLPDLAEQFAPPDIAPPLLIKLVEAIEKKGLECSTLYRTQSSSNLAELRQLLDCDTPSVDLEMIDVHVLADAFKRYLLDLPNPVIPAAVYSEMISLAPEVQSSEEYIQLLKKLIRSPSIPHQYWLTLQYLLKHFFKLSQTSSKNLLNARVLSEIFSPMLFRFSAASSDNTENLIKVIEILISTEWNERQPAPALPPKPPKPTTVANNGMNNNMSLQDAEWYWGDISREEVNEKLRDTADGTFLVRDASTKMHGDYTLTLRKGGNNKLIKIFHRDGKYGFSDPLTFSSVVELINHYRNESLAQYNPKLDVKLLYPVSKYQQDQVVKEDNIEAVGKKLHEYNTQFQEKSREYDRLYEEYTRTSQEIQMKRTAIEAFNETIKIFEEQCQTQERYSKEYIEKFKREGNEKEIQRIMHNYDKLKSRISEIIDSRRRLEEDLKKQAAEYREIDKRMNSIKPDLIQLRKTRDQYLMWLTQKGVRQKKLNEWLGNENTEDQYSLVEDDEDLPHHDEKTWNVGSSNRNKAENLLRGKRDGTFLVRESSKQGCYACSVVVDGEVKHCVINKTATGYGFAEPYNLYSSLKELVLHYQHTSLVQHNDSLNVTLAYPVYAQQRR
Put plainly: Kinase assay (PI3Kα). As to conditions: read-out: IC50 (μM) for PI3K inhibition. It counts as biochemical. As to the method: The kinase reaction was carried out in a 25 μL volume in a 1.5 mL microcentrifuge tube. The reaction mixture consisted of kinase buffer (10 mM Hepes, pH 7.5, 50 mM MgCl2), 20 ng PI3Kα kinase (Millipore, USA), 12.5 μg phosphotidylinositol (PI), 10 μM ATP and 1 μCi ^32γ P […]. […] The reactions were incubated at 30° C. for 20 minutes and were terminated by adding 1:1 mixture of MeOH and CHCl3. The tube contents were mixed on a vortex mixer and centrifuged at 10000 rpm for 2 minutes. 10 μL of the organic (lower) phase was spotted on to a TLC plate (silica, mobile phase: n-propanol and 2 M glacial acetic acid in 65:35 ratio). The plates were dried and exposed to an X-ray film. The bands appearing as a result of ^32γ P incorporation in PI were quantitated using the Quantityl)ne (BioRad, USA) densitometry program. PI-103 (Calbiochem, USA) was used as a standard.

In the next test the test system is MDA MB 468. Put plainly: Cytotoxicity assay (propidium iodide), MDA MB 468. Type of test: cell-based. As to conditions: Homo sapiens; MDA MB 468 (C6b, breast); 48 hours.
In the next test the test system is MCF7. Put plainly: Cytotoxicity assay (propidium iodide), MCF7. Type of test: cell-based. Conditions: Homo sapiens; MCF7 (C6c, breast); 48 hours.
A further test deals with G361. Put plainly: Cytotoxicity assay (propidium iodide), G361. Type of test: cell-based. As to conditions: G-361; G361 (C9a, human melanoma); 48 hours.

Protocol for A549: (§4) Cells from cell lines as mentioned in the table given below were seeded at a density of 3000 cells/well in a white opaque 96-well plate. Following incubation at 37° C./5% CO2 for a period of 18-24 hours, the cells were treated with various concentrations (stock solution was prepared in DMSO and subsequent dilutions were made in media as per ATCC guidelines) of the representative compounds of present invention (refer table 3) for a period of 48 hours. At the end of treatment, the spent culture medium was discarded, the cells were washed with 1×PBS and 200 μl of 7 μg/ml propidium iodide was added to each well. The plates were frozen at −70° C. for at least 24 hours. For analysis, the plates were brought to RT, allowed to thaw and were read in PolarStar fluorimeter with the fluorescence setting. The percentage of viable cells in the non treated set of wells was considered to be 100 and the percentage viability following treatment was calculated accordingly. IC50 values were calculated from graphs plotted using these percentages.
Protocol for CAPAN1: as §4
Protocol for G361: as §4
Protocol for H460: as §4
Protocol for HCT116: as §4
Protocol for MCF7: as §4
Protocol for MDA MB 468: as §4
Protocol for OVCAR 3: as §4
Protocol for PANC 1: as §4

Regarding `CN(N=Cc1cnc2ccc(-c3cccnc3)cn12)S(=O)(=O)c1ccccc1` [Example 1, N-methyl-N′-((6-(pyridin-3-yl)imidazo[1,2-a]pyridin-3-yl)methylene)benzenesulfonohydrazide], the IC50 in the test with PANC 1 was 0.01 to 5 µM; in the test on H460 it was 0.01 to 5 µM; in the test on PC3 it was 0.01 to 5 µM; in the test on IL-6 [1] it was 0.001 to 5 µM; in the test with STAT3, 5 to 10 µM; with A549 it was 0.01 to 5 µM. The IC50 in the test with A2780 fell in the range of 0.01 to 5 µM; with CAPAN1 it was 0.01 to 5 µM; with HCT116 it was 0.01 to 5 µM; in the test with OVCAR 3 it was 0.01 to 5 µM; in the test with TNF-α [2], 0.001 to 1 µM.
Consider `CN(N=Cc1cnc2ccc(-c3cccnc3)cn12)S(=O)(=O)c1c(F)cccc1F` [Example 14, 2,6-Difluoro-N-methyl-N′-((6-(pyridine-3-yl)imidazo[1,2-a]pyridine-3-yl)methylene) benzenesulfonohydrazide], for which the IC50 was 0.01 to 0.3 µM with TNF-α [3]; 0.001 to 5 µM in the test with IL-6 [1]; 5 to 10 µM with STAT3; 0.3 to 3 µM with IL-8; 0.01 to 0.3 µM with IL-6 [4]; 0.01 to 0.5 µM at PI3Kα kinase. Further, the IC50 in the test with TNF-α [2] fell in the range of 0.001 to 1 µM.
Consider `CN(N=Cc1cnc2ccc(-c3cccnc3)cn12)S(=O)(=O)c1ccc(F)c(Cl)c1` [Example 18, 3-Chloro-4-fluoro-N-methyl-N′-((6-(pyridine-3-yl)imidazo[1,2-a]pyridine-3-yl)methylene) benzenesulfonohydrazide], for which the IC50 in the test with H460 is over 5 µM; in the test with PC3, over 5 µM; with A549 it was over 5 µM; on PI3Kα kinase, 0.01 to 0.5 µM; with MDA MB 468, over 5 µM; in the test with MCF7, over 5 µM. This molecule also gave an IC50 in the test with G361 of over 5 µM.
Regarding `Cc1cc(C)c(S(=O)(=O)N(C)N=Cc2cnc3ccc(-c4cccnc4)cn23)c(C)c1` [Example 27, N, 2,4,6-tetramethyl-N′-((6-(pyridine-3-yl)imidazo[1,2-a]pyridine-3-yl)methylene)benzenesulfonohydrazide], the IC50 is over 5 µM with H460; over 5 µM in the test with PC3; over 5 µM with A549; 0.01 to 0.5 µM on PI3Kα kinase; over 5 µM in the test with MDA MB 468; over 5 µM with MCF7. In the test on G361, this molecule registered an IC50 of over 5 µM.
As to `CN(N=Cc1cnc2ccc(-c3cccnc3)cn12)S(=O)(=O)c1cccc2cccnc12` [Example 30, N-methyl-N′-((6-(pyridine-3-yl)imidazo[1,2-a]pyridine-3-yl)methylene) quinoline-8-sulfonohydrazide], the IC50 in the test with H460 is over 5 µM; in the test on PC3 it was over 5 µM; in the test on IL-6 [1], at least 5 µM; in the test on A549, over 5 µM; with MDA MB 468, over 5 µM; with MCF7, over 5 µM. Further, the IC50 with G361 was over 5 µM.

Usually IC50 stands for the midpoint of a concentration-inhibition curve.
